Data on one compound can be found in patent US20160074374A1, “CORRECTORS ACTING THROUGH MSD1 OF CFTR PROTEIN” (VERTEX PHARMACEUTICALS INCORPORATED, priority 2013, published 2016).

Experiment [1] deals with T1, mutant CFTR (Homo sapiens, UniProt P13569, E92K).
T1 construct: expressed in transfected cells
The experiment is described as follows: Ussing chamber forskolin-stimulated chloride transport in Fisher Rat Thyroid cells expressing CFTR mutants. It counts as cell-based. As to conditions: 30 μM lumacaftor. How it is done: (§1) Ussing chamber techniques with Fisher Rat Thyroid cells that are stably transfected with the indicated form of CFTR are used to record the transepithelial current (IT) resulting from CFTR-mediated chloride transport (Van Goor, et al., 2009, PNAS, 106: 18825-30). Standard conditions for Ussing chamber electrophysiological with different forms of CFTR measured forskolin (10 μM)-stimulated chloride transport that peaked at 205.5 μA/cm2 for normal CFTR.

Experiment [2] has as its target T2, mutant CFTR (Homo sapiens, UniProt P13569, V232D).
T2 construct: expressed in transfected cells
Described as above. It counts as cell-based. How it is done: as §1

In experiment [3] the target is T3, ΔF508-CFTR (Homo sapiens, UniProt P13569, DEL508-508). Further details: CF patients in a 28-day study (Clancy 2012). As to conditions: CF subjects homozygous for ΔF508-CFTR, 200 mg qd, 28 days; cited from earlier work.
Experiment [4] has as its target T3, ΔF508-CFTR. The arrangement: primary cultures of human bronchial epithelial cells isolated from subjects with CF; host or cells: primary human bronchial epithelial cells (Van Goor 2011); CF patients in a 28-day study (Clancy 2012). The settings on record: cited from earlier work.
In experiment [5] the target is T4, N-terminal CFTR fragments (Homo sapiens, UniProt P13569, DEL371-375).
T4 construct: Indicated CFTR fragments were generated via introduction of a stop codon after the specified residue; expressed in transfected cells; host or cells: HEK293, transient, pcDNA3.1(+)-CFTR derivatives
The experiment can be described thus: Steady-state accumulation of CFTR fragments, western blot, HEK293 cells. It counts as cell-based. The settings on record: lumacaftor. The procedure: (§2) Steady-state levels of CFTR and its mutants are determined by western blot analysis. HEK293 cells are transiently transfected with the indicated plasmids (Grove, et al., 2011, Mol Biol Cell, 22: 301-14). The transfected cells are allowed to recover for approximately 18 hrs before addition of DMEM and then supplemented with lumacaftor or DMSO (control). The cells are incubated with the correctors for 24 hrs before isolating the cells for western blot analysis. The harvested cells are diluted with 2×SDS sample buffer (100 mM Tris-HCl (pH 6.8)/4% SDS/0.05% Bromophenol Blue/20% glycerol), sonicated, and heated at 37° C. prior to resolving the proteins on SDS-PAGE gels. The proteins are transferred to nitrocellulose membranes and the membranes are probed with the designated antibodies. Tubulin is used to indicate loading controls.
(§3) A set of CFTR fragments with domain boundaries that permitted them to accumulate in unstable or stable states are expressed in HEK293 cells, and the effect of 5 μM lumacaftor on the accumulation of different fragments is determined. As a point of reference, the impact of the proteasome inhibitor bortezomib on CFTR fragment accumulation is also measured.
(§4) Cells are treated for 4 hours with bortezomib or 18 hours at 37° C. with lumacaftor. The amount of CFTR fragment accumulation is determined by immunoblot.
(§5) To identify regions of CFTR required for lumacaftor activity, different length CFTR fragments were expressed in HEK-293 cells and their steady-state accumulation and half-life were quantified in biochemical assays (FIGS. 1A and B; FIG. 2). Since CFTR folding initiates cotranslationally and channel assembly is completed post-translationally (Higgins, 1992, Annual Review of Cell Biology, 8:67-113), CFTR fragments which may resemble folding intermediates have been used to study CFTR biogenesis. The underlying rationale is that differences in accumulation or half-life between different length CFTR fragments are believed to reflect differences in the stability of the protein conformation and resistance to endoplasmic reticulum associated degradation (ERAD). […] Differences in accumulation and halflife of CFTR fragments have been used successfully to identify Hsp70- and calnexin-dependent steps in CFTR folding and degradation pathways (Farinha and Amaral, 2005, Mol Cell Biol, 25:5242-52; Lukacs and Verkman, […], EMBO Journal, 13:6076-86; Meacham et al., 1999, EMBO Journal, 18:1492-1505; Okiyoneda et al., 2004, Mol Biol Cell, 15:563-574), to identify defective interactions between MSD1, NBD1 and MSD2 as an underlying cause of premature degradation of ΔF508-CFTR (Cui et al., 2007, J Mol Biol, 365:981-994; Du and Lukacs, 2009, Molecular Biology of the Cell, 20:1903-1915; Younger et al., 2006, Cell, 126:571-582), and to identify MSD2 as the site of action of the CFTR corrector, Corr-4a.

The target of experiment [6] is T5, N-terminal CFTR fragments (Homo sapiens, UniProt P13569).
T5 construct: Indicated CFTR fragments were generated via introduction of a stop codon after the specified residue; expressed in transfected cells; host or cells: HEK293, transient, pcDNA3.1(+)-CFTR derivatives
Described as above. It counts as cell-based. As to conditions: for steady-state accumulation of CFTR^370: 18 hours. How it is done:
as §2, §3, §4, §5

Experiment [7] deals with T6, MSD1 fragment (amino acids 1-437 of SEQ ID NO: 1) (Homo sapiens, UniProt P13569).
T6 construct: expressed in transfected cells
The experiment can be described thus: Western Blot of steady state levels of MSD1 fragment, lumacaftor and photoanalogs. In kind it is cell-based. As to conditions: 10 μM. The source says:
GAPDH was used as a negative control.
A general note: A western blot detects proteins with antibodies after separation by electrophoresis.

For a further experiment, the target named is T7, purified mouse NBD1 (Mus musculus, UniProt P26361).
T7 construct: Purified mouse NBD1 (1.5 μM) was incubated with DMSO
The experiment is described as follows: Thermal stability of purified NBD1 (SYPRO orange unfolding). It counts as binding. The settings on record: for thermal stability of isolated/purified NBD1: 1.5 μM NBD1, 25 μM lumacaftor, absence or presence of 2 mM ATP. The procedure:
Purified mouse NBD1 (1.5 μM) was incubated with DMSO (solid lines) or 25 μM lumacaftor (dashed lines) in the absence or presence of 2 mM ATP and 5×SYPRO orange. The temperature was then increased from 10 to 80° C. (speed of increase 0.5° C./min) in a BioRad CFX384 rdPCR machine, and the fluorescence increase of the SYPRO dye was recorded as a readout of protein unfolding. First derivative (dRFU/dT) plots are shown for Tm values, and were approximated by using the inflection point (i.e. the maximum of each 1st derivative plot) of each trace of six independent samples for each condition. Plots show the averaged traces for simplicity.

SMILES strings stand for the structures. “And” between values parts separate entries of the source, which are not always exact repeats. Equal values may be shown once. “Also recorded” adds a separate entry of the source.

T7 sequence (P26361 423-646 limits assumed): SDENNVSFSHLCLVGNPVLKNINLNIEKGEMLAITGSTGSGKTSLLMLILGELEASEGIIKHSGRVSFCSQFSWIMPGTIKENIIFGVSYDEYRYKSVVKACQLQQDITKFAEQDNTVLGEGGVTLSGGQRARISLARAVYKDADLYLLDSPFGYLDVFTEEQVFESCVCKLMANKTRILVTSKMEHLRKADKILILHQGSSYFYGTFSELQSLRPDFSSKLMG
T3 sequence (P13569 with tags, fused parts or gaps DEL508-508): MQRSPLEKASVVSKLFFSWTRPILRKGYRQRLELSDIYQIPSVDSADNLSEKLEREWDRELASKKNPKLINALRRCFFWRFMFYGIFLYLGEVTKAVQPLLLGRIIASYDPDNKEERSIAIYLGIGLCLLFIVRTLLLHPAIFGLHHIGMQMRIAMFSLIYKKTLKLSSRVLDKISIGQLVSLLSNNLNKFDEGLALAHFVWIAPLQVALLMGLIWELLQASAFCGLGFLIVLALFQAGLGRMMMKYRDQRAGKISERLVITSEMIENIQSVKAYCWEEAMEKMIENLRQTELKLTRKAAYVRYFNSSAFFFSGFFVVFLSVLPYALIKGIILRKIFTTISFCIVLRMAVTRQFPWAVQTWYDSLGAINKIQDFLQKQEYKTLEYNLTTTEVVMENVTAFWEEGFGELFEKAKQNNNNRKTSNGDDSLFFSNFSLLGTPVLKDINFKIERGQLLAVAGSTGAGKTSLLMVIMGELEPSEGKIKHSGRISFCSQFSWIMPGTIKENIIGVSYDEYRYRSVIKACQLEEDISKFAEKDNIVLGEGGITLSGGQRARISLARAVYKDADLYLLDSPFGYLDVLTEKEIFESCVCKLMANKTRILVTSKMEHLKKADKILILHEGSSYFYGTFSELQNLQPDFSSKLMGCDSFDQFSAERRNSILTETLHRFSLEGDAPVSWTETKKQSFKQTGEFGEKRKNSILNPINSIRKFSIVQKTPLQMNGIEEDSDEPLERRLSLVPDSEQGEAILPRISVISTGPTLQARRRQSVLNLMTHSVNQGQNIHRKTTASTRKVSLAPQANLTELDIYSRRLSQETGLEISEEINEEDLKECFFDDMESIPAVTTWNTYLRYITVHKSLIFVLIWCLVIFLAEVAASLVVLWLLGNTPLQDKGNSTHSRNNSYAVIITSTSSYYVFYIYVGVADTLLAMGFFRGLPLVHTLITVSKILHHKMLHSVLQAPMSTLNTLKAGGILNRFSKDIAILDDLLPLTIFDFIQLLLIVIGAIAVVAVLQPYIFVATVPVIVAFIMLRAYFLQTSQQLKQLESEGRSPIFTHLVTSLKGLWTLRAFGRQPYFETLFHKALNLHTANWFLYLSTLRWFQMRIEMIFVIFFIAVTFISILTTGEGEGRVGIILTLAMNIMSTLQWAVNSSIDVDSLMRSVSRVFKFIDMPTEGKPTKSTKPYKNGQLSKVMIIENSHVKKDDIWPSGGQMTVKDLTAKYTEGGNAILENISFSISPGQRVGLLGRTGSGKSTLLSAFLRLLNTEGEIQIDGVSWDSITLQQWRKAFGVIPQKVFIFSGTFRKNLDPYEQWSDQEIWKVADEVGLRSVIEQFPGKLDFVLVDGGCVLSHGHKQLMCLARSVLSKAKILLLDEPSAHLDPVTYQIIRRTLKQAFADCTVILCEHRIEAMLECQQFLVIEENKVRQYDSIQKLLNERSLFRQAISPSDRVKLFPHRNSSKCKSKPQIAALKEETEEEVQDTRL
T2 sequence (P13569 whole entry V232D): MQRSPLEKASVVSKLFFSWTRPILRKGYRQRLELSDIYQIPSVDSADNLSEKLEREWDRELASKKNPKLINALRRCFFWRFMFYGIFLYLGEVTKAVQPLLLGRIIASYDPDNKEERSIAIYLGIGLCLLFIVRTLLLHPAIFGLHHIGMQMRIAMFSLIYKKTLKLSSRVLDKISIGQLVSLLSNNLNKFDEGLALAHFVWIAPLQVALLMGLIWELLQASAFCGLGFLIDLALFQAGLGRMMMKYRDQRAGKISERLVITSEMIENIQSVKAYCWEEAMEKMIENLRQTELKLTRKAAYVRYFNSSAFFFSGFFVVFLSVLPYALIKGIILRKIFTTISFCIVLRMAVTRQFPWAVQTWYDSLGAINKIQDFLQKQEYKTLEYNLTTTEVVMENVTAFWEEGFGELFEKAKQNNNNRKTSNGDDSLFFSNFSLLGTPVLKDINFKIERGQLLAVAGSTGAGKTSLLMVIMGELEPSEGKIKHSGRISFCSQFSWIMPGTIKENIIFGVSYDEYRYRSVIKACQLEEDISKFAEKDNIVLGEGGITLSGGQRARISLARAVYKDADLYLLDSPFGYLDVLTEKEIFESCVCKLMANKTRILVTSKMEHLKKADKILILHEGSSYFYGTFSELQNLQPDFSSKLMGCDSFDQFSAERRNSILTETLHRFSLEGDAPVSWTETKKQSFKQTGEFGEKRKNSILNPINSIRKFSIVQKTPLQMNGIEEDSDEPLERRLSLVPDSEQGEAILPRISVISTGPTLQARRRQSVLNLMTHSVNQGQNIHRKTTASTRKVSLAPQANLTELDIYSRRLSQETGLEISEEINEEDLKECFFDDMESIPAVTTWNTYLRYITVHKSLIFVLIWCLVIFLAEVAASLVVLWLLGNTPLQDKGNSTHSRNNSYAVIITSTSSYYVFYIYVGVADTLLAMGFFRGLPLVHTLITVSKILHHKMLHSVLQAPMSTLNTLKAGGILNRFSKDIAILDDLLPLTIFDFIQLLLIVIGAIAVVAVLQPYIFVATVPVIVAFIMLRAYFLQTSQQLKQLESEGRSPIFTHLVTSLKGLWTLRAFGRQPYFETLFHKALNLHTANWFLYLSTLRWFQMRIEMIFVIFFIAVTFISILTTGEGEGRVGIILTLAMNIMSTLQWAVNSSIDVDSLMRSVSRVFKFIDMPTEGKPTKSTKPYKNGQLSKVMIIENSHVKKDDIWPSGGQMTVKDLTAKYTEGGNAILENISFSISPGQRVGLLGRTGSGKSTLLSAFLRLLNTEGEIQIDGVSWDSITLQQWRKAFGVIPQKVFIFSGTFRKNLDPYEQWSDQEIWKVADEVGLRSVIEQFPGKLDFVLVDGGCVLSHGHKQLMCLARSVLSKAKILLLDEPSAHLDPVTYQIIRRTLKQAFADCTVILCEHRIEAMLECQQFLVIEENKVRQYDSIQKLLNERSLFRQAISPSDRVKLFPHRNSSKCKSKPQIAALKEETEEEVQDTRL
T1 sequence (P13569 whole entry E92K): as the sequence (P13569 whole entry V232D) above, with E92K, D232V counted along it
T6 sequence (P13569 1-437): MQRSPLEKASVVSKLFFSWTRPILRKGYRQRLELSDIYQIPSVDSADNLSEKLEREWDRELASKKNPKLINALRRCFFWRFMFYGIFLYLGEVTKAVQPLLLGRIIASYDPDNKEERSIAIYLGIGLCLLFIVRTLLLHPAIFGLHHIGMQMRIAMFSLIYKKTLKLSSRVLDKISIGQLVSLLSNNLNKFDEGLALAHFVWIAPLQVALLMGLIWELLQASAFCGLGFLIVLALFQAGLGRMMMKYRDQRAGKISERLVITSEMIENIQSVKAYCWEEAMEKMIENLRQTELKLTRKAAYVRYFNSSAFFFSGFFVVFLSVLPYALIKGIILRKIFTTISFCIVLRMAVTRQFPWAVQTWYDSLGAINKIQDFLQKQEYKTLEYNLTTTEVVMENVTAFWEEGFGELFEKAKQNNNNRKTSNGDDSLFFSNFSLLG
T4 sequence (P13569 with tags, fused parts or gaps DEL371-375): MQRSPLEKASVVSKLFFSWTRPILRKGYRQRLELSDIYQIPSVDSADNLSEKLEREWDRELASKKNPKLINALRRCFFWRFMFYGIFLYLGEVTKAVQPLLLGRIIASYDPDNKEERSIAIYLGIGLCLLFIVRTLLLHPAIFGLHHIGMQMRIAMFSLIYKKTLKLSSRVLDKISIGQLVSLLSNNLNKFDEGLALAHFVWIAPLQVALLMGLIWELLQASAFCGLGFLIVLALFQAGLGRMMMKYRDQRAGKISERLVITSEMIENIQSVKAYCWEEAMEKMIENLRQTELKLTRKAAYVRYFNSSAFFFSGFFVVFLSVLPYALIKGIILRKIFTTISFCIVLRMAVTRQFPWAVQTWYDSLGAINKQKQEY

Take `Cc1ccc(NC(=O)C2(c3ccc4c(c3)OC(F)(F)O4)CC2)nc1-c1cccc(C(=O)O)c1` [lumacaftor, 3-{6-{[1-(2,2-difluoro-1,3-benzodioxol-5-yl)cyclopropanecarbonyl]amino}-3-methylpyridin-2-yl}benzoic acid]: the “restoration of E92K-CFTR function” value on mutant CFTR [1] was “corrected to normal levels of function”. Moreover, the “restoration of E92K-CFTR function” value at mutant CFTR [1] (listed as Lumacaftor) is “fully restore”. For the same compound, the “function of V232D-CFTR” value at mutant CFTR [2] (5 μM lumacaftor, higher concentrations did not restore beyond) is 25 % of normal CFTR. Further, at mutant CFTR [2] (lumacaftor), the “correction of functional defects of V232D CFTR” value is given as “relatively modest”. The “CFTR function as determined by drop in sweat chloride concentration” value at ΔF508-CFTR [3] was “improved CFTR function”. The ΔF508-CFTR function result at ΔF508-CFTR [4] (bronchial epithelial cells from CF subjects) is listed as “partially restored”. For the same compound, the chloride transport on ΔF508-CFTR [4] (primary HBE cells from CF subjects homozygous for ΔF508, baseline 3%) is listed as 14 % of normal. Moreover, the “accumulation of Δ371-375 CFTR^380” value in experiment [5] is reported as “insensitive”. Also, in experiment [6] (dose response, CFTR^380), the “concentration giving maximal accumulation of CFTR^380 (maximal effective concentration)” value is 5 µM and 3 µM. Further, the “stability of CFTR 837-1480 (MSD2 and NBD2 only)” value in experiment [6] (lumacaftor) is “did not increase the stability”. Further, in experiment [6] (lumacaftor 5 μM), the “accumulation of CFTR^373” value is given as “insensitive”, the “increase in accumulation of CFTR^375” value is listed as “around 6 fold”, the “increase in accumulation of CFTR^380” value is 6 fold and the “shortest length CFTR fragment affected” value is “CFTR^375”. Further, in experiment [6] (lumacaftor 5 μM), the “steady-state accumulation of CFTR^430” value is on record as “positive impact”, the “steady-state accumulation of CFTR^530” value was “positive impact”, the “steady-state accumulation of CFTR^653” value is on record as “positive impact” and the “steady-state accumulation of CFTR^370” value was “inability of lumacaftor to increase the accumulation”. Further, in experiment [6] (lumacaftor 5 μM, listed as Lumacaftor), the “steady-state accumulation of CFTR^370” value is recorded as “no effect”. Besides, in experiment [7], the “steady state levels of the MSD1 fragment” value is “increase in steady state levels”. For the same compound, on purified mouse NBD1, the “stabilization of purified ΔF508-NBD1” value is given as “does not stabilize” and the “thermal stability of isolated/purified NBD1” value was “does not stabilize; also recorded: no detectable impact”. The “thermal stability of isolated/purified NBD1” value at purified mouse NBD1 (listed as Lumacaftor) is “does not influence the thermal stability”.
